According to paper PMC11116102, “A naturally occurring variant of SHLP2 is a protective factor in Parkinson’s disease” (Molecular Psychiatry, 2024):
One block for each compound: values may come before it. No end group written: not given here.

Legend:
[1] = test system: dopamine levels in the striatum; assay: Striatal dopamine in MPTP-lesioned mice (HPLC with electrochemical detection); assay type: in vivo; details: C57BL/6 mice, MPTP 20 mg/kg, n = 8 per group
Method: C57BL/6 male mice, 8 to 10 weeks of age were purchased from Jackson Labs (Bar Harbor, Maine). 1-methyl-4- phenyl- 1,2,3,6-tetrahydropyridine (MPTP) (Selleck Chemicals Co., Houston, TX) was prepared to a concentration of […] free-base in 0.9% saline on the day of use. C57BL/6 mice were injected with 20 mg/kg free-base MPTP. 8 days after the last injection of MPTP, mice were killed by cervical dislocation and the brain quickly removed and placed on wet ice. Striatal tissues for HPLC analysis and western immunoblotting were collected fresh corresponding to anatomical regions from bregma 1.20 to bregma 0.60, with borders dorsal to the anterior commissure, ventral to the corpus callosum, medial to the lateral ventricle, and 2.5 mm lateral from midline, and frozen at -80 °C until analysis. All procedures utilizing MPTP lesioning and tissue collection were approved by the USC IACUC.
Dopamine concentrations were determined according to an adaptation of Irwin et al. from the method of Kilpatrick et al.. […] The protein pellet was resuspended in 0.5 N NaOH and the total protein concentration determined using the BCA Protein Assay (Pierce, Rockford, IL), a Biotek Model Elx800 microplate reader (Biotek Instruments, Wincoski, VT) and KCjunior software. […]

HEK293 cells = assay: Cycloheximide pulse-chase protein stability; assay type: cell-based; details: HEK293 transiently transfected with C-terminal EGFP-tagged construct; 100ug/ml cycloheximide for the indicated time; western blot, Image J; n = 3/per group
Method: Cells were lysed with RIPA Lysis and Extraction Buffer (ThermoFisher Scientific) plus the Halt protease & phosphatase inhibitor cocktail (ThermoFisher Scientific). The lysates were incubated on ice for 10 min then homogenized using a sonicator, and the supernatant was collected by centrifugation at 15,000 x g for 15 min at 4 °C. Protein content in the cellular lysates was quantified using the Pierce™ BCA Protein Assay Kit (ThermoFisher Scientific). Predetermined amounts of proteins (10-30μg) were separated on 8-16% SDS-PAGE gels and blotted onto PVDF membranes (Biorad, Hercules, CA, USA). Membranes were incubated with primary antibody at 4 °C overnight according to the manufacturer’s instructions. After several washes with Tris-buffered saline containing 0.1% Tween-20, membranes were incubated at room temperature for 1 hr with the appropriate HRP-conjugated secondary antibody. Clarity™ Western ECL substrate (Biorad) was used for detecting specific bands. Membranes were imaged on a Bio-Rad ChemiDoc XRS^+ imager. If necessary, relative intensities of the bands in each condition were measured using Image J, a free software program provided by National Institute of Health (Bethesda, Maryland, USA).
Cycloheximide, an inhibitor of protein biosynthesis, was used to examine protein stability in cells. […] The protein quantity from western blot was examined with Image J.

[2] = test system: HeLa expressing HA- EGFP- OMP25 (HA-MITO); assay: Rapid mitochondria immunoprecipitation, localization of synthetic SHLP2; assay type: cell-based; details: synthetic SHLP2 treatment, western blot
Method: Mitochondria isolation from HeLa cells expressing HA-EGFP-OMP25 (HA-MITO) or myc-EGFP-OMP25 (CON-MITO) was performed according to the published article. Briefly, cells were lysed in KPBS buffer (136 mM KCl, 10 mM KH2PO4, pH 7.25) and homogenized with 25 strokes of a 2 ml homogenizer. The homogenate was spun down at 1000 g for 2 min. The supernatant was incubated with anti-HA magnetic beads on an end-over-end rotator for 3.5 min. The beads were washed with KPBS buffer, incubated for 10 min with lysis buffer (1% triton X-100 lysis buffer with protease inhibitor cocktail), and spun down at 17000 g for 10 min. The supernatants were used for western blot.

Compound: CN1CC=C(c2ccccc2)CC1 [MPTP, 1-methyl-4-phenyl-1,2,3,6-tetrahydropyridine]
dopamine levels in the striatum, toxin alone [1]: significant decrease in dopamine levels

protein stability, pulse-chase (HEK293 cells): more stable than WT SHLP2
Compound: MGVRFFTLSTRFFPSVQRAVPLWTNS [K4R SHLP2]

Compound: MGVKFFTLSTRFFPSVQRAVPLWTNS [WT SHLP2]
mitochondrial localization of synthetic peptide [2]: localized in the mitochondria after 30 min of treatment
